US12655461B2 (priority 2020, dated 2026)

Key:
[1] = system: lac promoter in BL21 cells (pEC-GFP); assay: IPTG induction of GFP from lac promoter (pEC-GFP) in BL21 cells; format: cell-based, E. coli; conditions: 0.01 mM and 0.1 mM IPTG, 24 hours
E. coli cells = conditions: LB media, 37° C., OD600
[2] = system: synthetic cyn promoter (pCyn-v2-GFP) in E. coli BW25113-Wt
[3] = system: cyn promoter/operator regulated by cynR (pCyn-v1-GFP); assay: GFP expression from pCyn-v1-GFP (native cyn promoter) induced with cyanate or azide, flow cytometry and bulk lysate fluorescence; format: cell-based, E. coli; conditions: 1 mM inducer

SMILES: CC(C)S[C@@H]1O[C@H](CO)[C@H](O)[C@H](O)[C@H]1O [IPTG]
- GFP expression at lower inducer concentrations over time [1]: GFP expression increased with time and reached maximum after 24 hours

SMILES: [N-]=[N+]=[N-] [sodium azide]
- azide amount showing dramatic influence on the growth of the cells (E. coli cells): > 5 mM
- azide concentration until which GFP expression increased [2]: 1 mM
- detection limit of the synthetic promoter for azide [2]: > 10 µM

SMILES: N#CO [sodium cyanate]
- GFP fluorescence of induced cells compared to uninduced control ([3]; BW25113 wildtype, 19 hours, flow cytometry): did not result in any GFP expression
- GFP expression of induced cells ([3]; ΔcynS strain (BW25113-sCB1)): recovered the GFP expression
